Measurements as given in paper PMC4769088, “Antifungal Activity and Action Mechanism of Histatin 5-Halocidin Hybrid Peptides against Candida ssp” (PLoS ONE, 2016).
Like-named read-outs stand apart in the source and are kept apart here. Where a SMILES comes first, the peptide text is derived from it. Bridges are numbered along the chain shown (N, C = ends). Roman numbers before positions name the chains, in order. Where no end group is shown, it is not given here.

Assays:
[1] = tested on: C.albicans CCARM 14020; format: cell-based, Candida albicans
[2] = tested on: C.albicans CCARM 14022; format: cell-based, Candida albicans
[3] = tested on: C.albicans SC5413; format: cell-based, Candida albicans
[4] = tested on: C. guilliermondi CCARM 14018; format: cell-based
Procedure: (§1) To determine the candidacidal activity of the peptides, we used Candida strains obtained from the Culture collection of antimicrobial resistant microbes at Seoul Women’s University in Korea. These included three Candida albicans (CCARM 14020, 14021, 14022), Candida guillermondi and Candida tropicalis. In addition, Candida albicans SC5413 was kindly provided by Dr Jeong-Yoon Kim at the Department of Microbiology & Molecular Biology, Chungnam University, Korea. Yeast were cultured overnight at 30°C in 10 ml of yeast extract-peptone-dextrose (YPD) broth (Qbiogene), then diluted in 10 ml of YPD broth to OD600 = 0.2 and grown for an additional 4 h with shaking at 30°C until OD600 = 0.8 in order to obtain mid-log phase cultures. The peptides (Hst 5, P113, HHP1, HHP2, PH1, PH2, di-PH1, di-PH2, WP1, di-WP2, di-15Hc and di-18Hc) in this study were synthesized by using standard solid-phase synthesis protocols and were purified by reversed-phase high-performance liquid chromatography at Anygen Inc. (Korea). FITC-labeled peptides (F-Hst5, F-P113, F-HHP1, F-di-PH2, F-di-WP2 and F-di-18Hc) were also synthesized by 6-aminohexnoic acid linker at Anygen (Korea) for confocal experiments.
(§2) The candidacidal activities of the peptides were tested by using standard microdilution plate assays, radial diffusion assays and broth dilution assay slightly modified from the procedure recommended by the National Committee for Clinical Laboratory Standards. For the candidacidal assays, C. albicans cells were grown in YPD medium and washed twice with 10 mM sodium phosphate buffer (NaPB; Na2HPO4, NaH2PO4, pH 7.4). The cells (1 x 10^6) were then mixed with different concentrations of peptides and incubated at 30°C with constant shaking for 60 min. For energy depletion experiments, cells were pre-incubated with 10 mM NaPB containing 5 mM NaN3 at 30°C for 60 min before the addition of peptides. The cell suspensions were diluted in 10 mM NaPB and aliquots of 500 cells were spread onto YPD agar plates then incubated for 24 h at 30°C to visualize the surviving colonies. Cell survival was expressed as a percentage of that for the control, and the loss of viability was calculated as [1 x (number of colonies from peptide-treated cells/number of colonies from control cells)] x 100. Candidacidal assays were performed in triplicate. For the radial diffusion assay, C. albicans cells were grown in YPD medium overnight and washed twice with 10 mM NaPB. Washed yeast-phase C. albicans cells (1 x 10^6 CFU) were trapped in thin underlay gels containing 9 mM sodium phosphate, 1 mM sodium citrate buffer, 1% (wt/vol) agarose (A6013; Sigma), and 0.3 mg of Sabouraud dextrose broth (Difco)/ml. After incubation at 37°C for 3 h, a 10 ml overlay gel of 1% agarose and 6% Sabouraud dextrose broth was poured on the underlay gel and then the plates were incubated overnight at 37°C. The clear-zone diameters were measured to the nearest 0.1 mm and graphed against the peptide concentration. Zone diameters were expressed in units (0.1 mm = 1 unit). For the broth dilution assay, the Candida strains were cultured in LYM broth for 18 h at 30°C. The numbers of yeasts were counted using a hemocytometer. Stock peptide solutions were prepared to a concentration of 320 μg/ml in distilled water, and were then serially diluted twofold, to 5 μg/ml. 100 μl aliquots of the diluted culture media containing candida cells (1 x 10^3) were dispensed into the wells of 96-well polypropylene microtiter plates (Costar 3879, Corning, NY), to which peptide solution (11 μl) was then added. In the experiments conducted to assess the candidacidal activity of peptides in the presence of salt, we used LYM supplemented with 150 mM NaCl for the culture medium, which was mixed with the peptide solution. The antifungal activities were evaluated after 24 h of incubation at 30°C by the observation of visible turbidity the wells. […]

[5] = tested on: C. guilliermondi CCARM 14019; format: cell-based
Procedure: as §1, §2

[6] = NaCl 150 mM, LYM supplemented with 150 mM NaCl, 24 h at 30°C

## C[C@H](NC(=O)[C@H](Cc1c[nH]cn1)NC(=O)[C@H](CO)NC(=O)[C@@H](N)CC(=O)O)C(=O)N[C@@H](CCCCN)C(=O)N[C@@H](CCCNC(=N)N)C(=O)N[C@@H](Cc1c[nH]cn1)C(=O)N[C@@H](Cc1c[nH]cn1)C(=O)NCC(=O)N[C@@H](Cc1ccc(O)cc1)C(=O)N[C@@H](CCCCN)C(=O)N[C@@H](CCCNC(=N)N)C(=O)N[C@@H](CCCCN)C(=O)N[C@@H](Cc1ccccc1)C(=O)N[C@@H](Cc1c[nH]cn1)C(=O)N[C@@H](CCC(=O)O)C(=O)N[C@@H](CCCCN)C(=O)N[C@@H](Cc1c[nH]cn1)C(=O)N[C@@H](Cc1c[nH]cn1)C(=O)N[C@@H](CO)C(=O)N[C@@H](Cc1c[nH]cn1)C(=O)N[C@@H](CCCNC(=N)N)C(=O)NCC(=O)N[C@@H](Cc1ccc(O)cc1)C(=O)O [Hst 5, Histatin 5]
[1]; CCARM 14020, 24 h
  MICs: 8 to 16 µg/mL
[1]; [6]
  MICs: 32< μg/ml
[2]; CCARM 14022, 24 h
  MICs: 8 to 16 µg/mL
[2]; [6]
  MICs: 32< μg/ml
[3]; [6]
  MICs: 32< μg/ml
[3]; SC5413, 24 h
  MICs: 8 to 16 µg/mL
[4]; CCARM 14018, 24 h
  MICs: 1 to 2 µg/mL
[4]; [6]
  MICs: 32< μg/ml
[5]; CCARM 14019, 24 h
  MICs: 2 to 4 µg/mL
[5]; [6]
  MICs: 32< μg/ml

## CC(C)C[C@H](NC(=O)CNC(=O)[C@H](Cc1c[nH]cn1)NC(=O)[C@H](Cc1c[nH]cn1)NC(=O)[C@H](CC(C)C)NC(=O)[C@H](CC(C)C)NC(=O)[C@H](C)NC(=O)[C@H](CC(N)=O)NC(=O)[C@H](CC(C)C)NC(=O)[C@@H](N)Cc1c[nH]c2ccccc12)C(=O)N[C@@H](CC(N)=O)C(=O)N[C@@H](CSSC[C@H](NC(=O)[C@H](CC(N)=O)NC(=O)[C@H](CC(C)C)NC(=O)CNC(=O)[C@H](Cc1c[nH]cn1)NC(=O)[C@H](Cc1c[nH]cn1)NC(=O)[C@H](CC(C)C)NC(=O)[C@H](CC(C)C)NC(=O)[C@H](C)NC(=O)[C@H](CC(N)=O)NC(=O)[C@H](CC(C)C)NC(=O)[C@@H](N)Cc1c[nH]c2ccccc12)C(=O)N[C@@H](C)C(=O)N[C@@H](CCCCN)C(=O)NCC(=O)N[C@H](C(=O)N[C@@H](CC(C)C)C(=O)N[C@@H](C)C(N)=O)C(C)C)C(=O)N[C@@H](C)C(=O)N[C@@H](CCCCN)C(=O)NCC(=O)N[C@H](C(=O)N[C@@H](CC(C)C)C(=O)N[C@@H](C)C(N)=O)C(C)C [di-18Hc, reference compound] (I: H-WLNALLHHGLNCAKGVLA-NH2 / II: H-WLNALLHHGLNCAKGVLA-NH2; disulfide I:12-II:12 (inferred); N-terminus assumed)
[5]; CCARM 14019, 24 h
  MICs: 4 to 8 µg/mL

## CC(C)C[C@H](NC(=O)CNC(=O)[C@H](Cc1c[nH]cn1)NC(=O)[C@H](Cc1c[nH]cn1)NC(=O)[C@H](CCCNC(=N)N)NC(=O)[C@H](CCCCN)NC(=O)[C@H](C)N)C(=O)N[C@@H](CC(N)=O)C(=O)N[C@@H](CSSC[C@H](NC(=O)[C@H](CC(N)=O)NC(=O)[C@H](CC(C)C)NC(=O)CNC(=O)[C@H](Cc1c[nH]cn1)NC(=O)[C@H](Cc1c[nH]cn1)NC(=O)[C@H](CCCNC(=N)N)NC(=O)[C@H](CCCCN)NC(=O)[C@H](C)N)C(=O)N[C@@H](C)C(=O)N[C@@H](CCCCN)C(=O)N[C@@H](Cc1ccccc1)C(=O)N[C@@H](Cc1c[nH]cn1)C(N)=O)C(=O)N[C@@H](C)C(=O)N[C@@H](CCCCN)C(=O)N[C@@H](Cc1ccccc1)C(=O)N[C@@H](Cc1c[nH]cn1)C(N)=O [di-PH2] (I: H-AKRHHGLNCAKFH-NH2 / II: H-AKRHHGLNCAKFH-NH2; disulfide I:9-II:9 (inferred); N-terminus assumed)
[1]; CCARM 14020, 24 h
  MICs: 1 to 2 µg/mL
[1]; [6]
  MICs: 32< μg/ml
[2]; CCARM 14022, 24 h
  MICs: 2 to 4 µg/mL
[2]; [6]
  MICs: 32< μg/ml
[3]; [6]
  MICs: 32< μg/ml
[3]; SC5413, 24 h
  MICs: 1 to 2 µg/mL
[4]; [6]
  MICs: 32< μg/ml

## CC(C)C[C@H](NC(=O)[C@@H](N)Cc1c[nH]c2ccccc12)C(=O)N[C@@H](CC(N)=O)C(=O)N[C@@H](C)C(=O)N[C@@H](CCCCN)C(=O)N[C@@H](CCCNC(=N)N)C(=O)N[C@@H](Cc1c[nH]cn1)C(=O)N[C@@H](Cc1c[nH]cn1)C(=O)NCC(=O)N[C@@H](Cc1ccc(O)cc1)C(=O)N[C@@H](CCCCN)C(=O)N[C@@H](CSSC[C@H](NC(=O)[C@H](CCCCN)NC(=O)[C@H](Cc1ccc(O)cc1)NC(=O)CNC(=O)[C@H](Cc1c[nH]cn1)NC(=O)[C@H](Cc1c[nH]cn1)NC(=O)[C@H](CCCNC(=N)N)NC(=O)[C@H](CCCCN)NC(=O)[C@H](C)NC(=O)[C@H](CC(N)=O)NC(=O)[C@H](CC(C)C)NC(=O)[C@@H](N)Cc1c[nH]c2ccccc12)C(=O)N[C@@H](CCCCN)C(=O)N[C@@H](Cc1ccccc1)C(=O)N[C@@H](Cc1c[nH]cn1)C(N)=O)C(=O)N[C@@H](CCCCN)C(=O)N[C@@H](Cc1ccccc1)C(=O)N[C@@H](Cc1c[nH]cn1)C(N)=O [di-WP2] (I: H-WLNAKRHHGYKCKFH-NH2 / II: H-WLNAKRHHGYKCKFH-NH2; disulfide I:12-II:12 (inferred); N-terminus assumed)
[4]; CCARM 14018, 24 h
  MICs: 2 to 4 µg/mL
[5]; CCARM 14019, 24 h
  MICs: 4 to 8 µg/mL

## AKRHHGYKRKFH-NH2 [P113]
[1]; CCARM 14020, 24 h
  MICs: 4 to 8 µg/mL
[1]; [6]
  MICs: 32< μg/ml
[2]; CCARM 14022, 24 h
  MICs: 8 to 16 µg/mL
[2]; [6]
  MICs: 32< μg/ml
[3]; [6]
  MICs: 32< μg/ml
[3]; SC5413, 24 h
  MICs: 4 to 8 µg/mL
[4]; CCARM 14018, 24 h
  MICs: 0.5 to 1 µg/mL
[4]; [6]
  MICs: 32< μg/ml
[5]; CCARM 14019, 24 h
  MICs: 0.5 to 1 µg/mL
[5]; [6]
  MICs: 32< μg/ml
